The values below come from patent US9321722B2, “Bis-indolic derivatives, their uses in particular as antibacterials” (UNIVERSITE JOSEPH FOURIER, priority 2011, dated 2016).

One test deals with E. faecium CIP 54.32. As to the kind of experiment: MIC microdilution (Table I-1). In kind it is cell-based. The note with it: Enterococcus faecium, CIP54, read after 18 hours, read-out: MIC. As for the experimental part:
(§1) The microdilution method recommended by the Clinical and Laboratory Standard Institute [M07-A8, Vol. 29, N^o 2] was used. The activity of indolic compounds was tested against 29 bacterial strains belonging to 17 different species and 12 different genera (Staphylococcus, Streptococcus, Enterococcus, Listeria, Bacillus, Haemophilus, Escherichia, Klebsiella, Enterobacter, Serratia, Pseudomonas, and Acinetobacter). Bacterial inocula were prepared in Mueller Hinton broth (MH2, bioMerieux, Marcy L'Etoile, France), supplemented with 10% sheep blood for fastidious species (i.e., Streptococcus pneumoniae and Haemophilus influenzae). They were dispensed in 96 well microtiter plates (5×10^5 CFU/ml of final inoculum). Indolic compounds were added to the wells as to obtain two-fold serial concentrations (0.50-128 mg/L of final concentrations). Plates were incubated at 37° C. in ambient air, or at 37° C. in 5% CO2 enriched atmosphere for fastidious species. […] Drug-free cultures served as growth controls. Cultures receiving gentamicin, ciprofloxacin or cefotaxime served as positive controls.
In general terms: In broth dilution the organism is exposed to a series of concentrations in liquid medium.

A further test concerns E. faecalis ATCC 29212. As to the kind of experiment: MIC microdilution (Table I-1). In kind it is cell-based. The note with it: Enterococcus faecalis, ATCC29212, read after 18 hours, read-out: MIC. As for the experimental part:
as §1

Test [1] has as its system Klebsiella pneumoniae ATCC 35657. As to the kind of experiment: MIC microdilution (Table I-1). The note with it: ATCC35657, read after 18 hours, read-out: MIC. In kind it is cell-based. The method, then:
as §1

Another test has as its system S. aureus ATCC 25923. The test can be described thus: MIC microdilution (Table I-1). In kind it is cell-based. The note with it: Staphylococcus aureus, ATCC25923, read after 18 hours. The method, then: as §1
In test [2] the test system is Pseudomonas aeruginosa CIP 5933. The test can be described thus: MIC microdilution (Table I-1). In kind it is cell-based. The note with it: CIP5933, read after 18 hours. The method, then:
as §1

Test [3] has as its system Escherichia coli ATCC 25922. The test can be described thus: MIC microdilution (Table I-1). In kind it is cell-based. The note with it: ATCC25922, read after 18 hours. The method, then:
as §1

Test [4] relates to S. pyogenes (group A) CIP 104226. The test can be described thus: MIC microdilution (Table I-1). In kind it is cell-based. The note with it: Streptococcus pyogenes, CIP104226, read after 18 hours, read-out: MIC. As for the experimental part: as §1
The test system of test [5] is Haemophilus influenzae ATCC 49766. The test can be described thus: MIC microdilution (Table I-1). In kind it is cell-based. The note with it: ATCC49766; Haemophilus influenzae ATCC 49766; read after 18 hours; read-out: MIC. As for the experimental part:
as §1

Test [6] has as its system Serratia marcescens CIP 103551. The test can be described thus: MIC microdilution (Table I-1). In kind it is cell-based. The note with it: CIP103551, read after 18 hours. The method, then:
as §1

For the next test, the system named is S. mitis CIP 103335. The test can be described thus: MIC microdilution (Table I-1). In kind it is cell-based. The note with it: Streptococcus mitis, CIP103335, read after 18 hours, read-out: MIC. The method, then: as §1
The next test has as its system S. pneumoniae ATCC 49619. As to the kind of experiment: MIC microdilution (Table I-1). The note with it: Streptococcus pneumoniae, ATCC49619, read after 18 hours. In kind it is cell-based. The method, then: as §1
Test [7] deals with S. agalactiae (group B) ATCC 12400. The test can be described thus: MIC microdilution (Table I-1). In kind it is cell-based. The note with it: Streptococcus agalactiae, ATCC12400, read after 18 hours, read-out: MIC. As for the experimental part:
as §1

Test [8] deals with Staphylococcus aureus 1199B (overexpression of the NorA efflux pump). As to the kind of experiment: Efflux pump inhibition assay with sub-inhibitory ciprofloxacin. In kind it is cell-based. The note with it: in the presence of ciprofloxacin 4 mg/L (MIC/4). The method, then: The efflux pump inhibition potential of the bis-indolic derivatives was tested using two steps. In a first step, the intrinsic antibacterial activity of the compounds was assayed against the following strains:
The following experimental protocol was used: indolic derivatives (initially solubilised in DMSO at 10 mg/mL) were dispensed in a 96-wells microplate by two fold serial dilutions in Muller-Hinton medium (MH, Bio Rad) using a Biomek 2000 (Beckman) handling robot. 100 μL of the bacterial inoculum (an overnight culture at 37° C. in 5 mL MH diluted 100-fold) was then added in each well. The total volume was 200 μL in each well and the final bacteria concentration 10^6 CFU/mL (CFU: colony forming unit). The highest final indolic derivative concentration was 128 mg/L. Growth was assayed with a microplate reader by monitoring absorption at 620 nm after 1, 2, 5, 7 and 24 h incubation at 37° C. In addition, the plates were read visually after 24 hours incubation. Cultures containing 5 μL DMSO were used as growth controls. In addition, two controls containing a sub-inhibitory or a inhibitory antibiotic concentration for the tested strain were performed. The antibiotics used were ampicillin (0.5 and 32 μg/mL) for E. coli, kanamycin (0.5 and 16 μg/mL) for S. aureus ATCC 25923, ciprofloxacin (4 and 64 mg/L) for S. aureus 1199B, ciprofloxacin (0.5 and 2 mg/L) for S. aureus K2378. All experiments were performed in duplicate.
Efflux pump inhibition assays were then performed against resistant Staphylococcus aureus strains SA 1199B and SA K2378 for bis-indolic derivatives. […] The minimal inhibitory concentration (MIC) of the bis-indolic compound allowing a complete inhibition of the bacterial growth in the presence of ciprofloxacin was determined.

For the next test, the system named is S. aureus ATCC 9144. The test can be described thus: MIC microdilution (Table I-1). The note with it: Staphylococcus aureus, ATCC9144, read after 18 hours, read-out: MIC. In kind it is cell-based, Staphylococcus aureus. As for the experimental part: as §1
The next test deals with S. aureus CIP 65.6. As to the kind of experiment: MIC microdilution (Table I-1). In kind it is cell-based, Staphylococcus aureus. The note with it: Staphylococcus aureus, CIP65, read after 18 hours, read-out: MIC. As for the experimental part:
as §1

The next test has as its system S. aureus ATCC 29213. The test can be described thus: MIC microdilution (Table I-1). In kind it is cell-based, Staphylococcus aureus. The note with it: Staphylococcus aureus, ATCC29213, read after 18 hours, read-out: MIC. The method, then: as §1
In the next test the test system is S. aureus ATCC 6538. The test can be described thus: MIC microdilution (Table I-1). In kind it is cell-based, Staphylococcus aureus. The note with it: Staphylococcus aureus, ATCC6538, read after 18 hours, read-out: MIC. As for the experimental part:
as §1

Test [9] concerns S. aureus ATCC 106414 (VISA). As to the kind of experiment: MIC microdilution (Table I-1). In kind it is cell-based, Staphylococcus aureus. The note with it: Staphylococcus aureus, read after 18 hours, read-out: MIC. The method, then: as §1
For test [10], the system named is S. aureus ATCC 33592 (MRSA). The test can be described thus: MIC microdilution (Table I-1). In kind it is cell-based, Staphylococcus aureus. The note with it: Staphylococcus aureus, read after 18 hours, read-out: MIC. As for the experimental part: as §1
The test system of test [11] is S. aureus CIP 65.25 (MRSA). As to the kind of experiment: MIC microdilution (Table I-1). In kind it is cell-based, Staphylococcus aureus. The note with it: Staphylococcus aureus, read after 18 hours, read-out: MIC. The method, then: as §1
Another test relates to S. aureus CIP 103428. The test can be described thus: MIC microdilution (Table I-1). In kind it is cell-based, Staphylococcus aureus. The note with it: Staphylococcus aureus, CIP103428, read after 18 hours, read-out: MIC. As for the experimental part:
as §1

The next test relates to S. aureus SA-1199B. As to the kind of experiment: MIC microdilution (Table I-1). The note with it: Staphylococcus aureus, SA1199B, 18 h. In kind it is cell-based, Staphylococcus aureus. As for the experimental part:
as §1

In brackets after ≈: the same amount, converted by molar mass.

Regarding `O=C(C(=O)N1CCCCC1c1c[nH]c2ccccc12)c1c[nH]c2ccccc12` (stereo not drawn) [Compound 6a, 1-(2-(1H-Indol-3-yl)piperidin-1-yl)-2-(1H-indol-3-yl)ethane-1,2-dione], the MIC (with E. faecium CIP 54.32; with E. faecalis ATCC 29212; in test [1]; against S. aureus ATCC 25923; in test [2]; in test [3]) was > 128 mg/L each time. Besides, the MIC (in test [4]; in test [5]; in [6]; in the test on S. mitis CIP 103335; with S. pneumoniae ATCC 49619; in test [7]) was > 128 mg/L in each case. Also, the MIC (in the test with S. aureus ATCC 9144; in the test on S. aureus CIP 65.6; in the test on S. aureus ATCC 29213; in the test with S. aureus ATCC 6538; in [9]; in [10]) was > 128 mg/L throughout. The MIC (in test [11]; in the test with S. aureus CIP 103428; against S. aureus SA-1199B) was > 128 mg/L in each case. Moreover, the “CMI, mg/L (Ciprofloxacin concentration, mg/L)” value (shortened to “CMI, mg/L”) in test [8] is on record as <0.125 (4) mg/L.
For the compound `O=C(C(=O)N1CCCCC1c1c[nH]c2ccc(Br)cc12)c1c[nH]c2ccc(Br)cc12` (stereo not drawn) [Compound 6d, 1-(5-Bromo-1H-indol-3-yl)-2-(2-(5-bromo-1H-indol-3-yl)piperidin-1-yl)ethane-1,2-dione], the MIC (in the test on E. faecium CIP 54.32; in the test on E. faecalis ATCC 29212; in test [1]; in the test with S. aureus ATCC 25923; in test [2]; in [3]) was > 128 mg/L throughout. In addition, the MIC (in [4]; in test [5]; in test [6]; in the test with S. mitis CIP 103335; in the test on S. pneumoniae ATCC 49619; in test [7]) was > 128 mg/L each time. For the same compound, the MIC was > 128 mg/L in the test on S. aureus ATCC 9144; > 128 mg/L in the test with S. aureus CIP 65.6; 2 to 4 mg/L (≈ 3.78 to 7.56 µM) in the test with S. aureus ATCC 29213; > 128 mg/L in the test on S. aureus ATCC 6538; > 128 mg/L in [9]; > 128 mg/L in [10]. The MIC (in [11]; in the test on S. aureus CIP 103428; in the test with S. aureus SA-1199B) was > 128 mg/L throughout. The “CMI, mg/L” value in test [8] is <0.125 (4) mg/L.
With `CC(C)(C)OC(=O)N1CCN(C(=O)C(=O)c2c[nH]c3ccccc23)C(c2c[nH]c3ccccc23)C1` (stereo not drawn) [Compound 6c, tert-Butyl 4-(2-(1H-indol-3-yl)-2-oxoacetyl)-3-(1H-indol-3-yl)piperazine-1-carboxylate], the MIC (in the test with E. faecium CIP 54.32; with E. faecalis ATCC 29212; in [1]; in the test on S. aureus ATCC 25923; in test [2]; in test [3]) was > 128 mg/L each time. The MIC (in [4]; in test [5]; in test [6]; in the test on S. mitis CIP 103335; in the test with S. pneumoniae ATCC 49619; in test [7]) was > 128 mg/L in each case. Further, the MIC (in the test with S. aureus ATCC 9144; with S. aureus CIP 65.6; in the test with S. aureus ATCC 29213; in the test on S. aureus ATCC 6538; in [9]; in [10]) was > 128 mg/L throughout. Besides, the MIC (in test [11]; in the test on S. aureus CIP 103428; against S. aureus SA-1199B) was > 128 mg/L in each case. The “CMI, mg/L” value in test [8] is recorded as 0.25 (4) mg/L.
